Data as given in ChEMBL document CHEMBL1201861, “Genomics of Drug Sensitity in Cancer screening data, Wellcome Trust Sanger Institute”.

How the values were obtained:
Experiment in all cases: cells
[1] = tested on: COLO-829; assay type: functional, cell-based, Homo sapiens; details: Homo sapiens, COLO-829
Description: SANGER: Inhibition of human COLO-829 cell growth in a cell viability assay.

[2] = tested on: DB; assay type: functional, cell-based, Homo sapiens; details: Homo sapiens, DB
Description: SANGER: Inhibition of human DB cell growth in a cell viability assay.

[3] = tested on: DEL; assay type: functional, cell-based, Homo sapiens; details: Homo sapiens, DEL;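 further: growth inhibition of the human DEL cell line, read out with a cell viability assay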
Description: SANGER: Inhibition of human DEL cell growth in a cell viability assay.

[4] = tested on: DMS-114; assay type: functional, cell-based, Homo sapiens; details: Homo sapiens, DMS-114
[5] = tested on: DOHH-2; assay type: functional, cell-based, Homo sapiens; details: Homo sapiens, DOHH-2;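 further: growth inhibition of human DOHH-2 cells, read out with a cell viability assay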
Description: SANGER: Inhibition of human DOHH-2 cell growth in a cell viability assay.

[6] = tested on: ES3; assay type: functional, cell-based, Homo sapiens; details: Homo sapiens, ES3;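 further: growth inhibition of ES3 cells, read out with a cell viability assay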
Description: SANGER: Inhibition of human ES3 cell growth in a cell viability assay.

[7] = tested on: ES4; assay type: functional, cell-based, Homo sapiens; details: Homo sapiens, ES4;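 further: growth inhibition of human ES4 cells, read out by a cell viability assay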
Description: SANGER: Inhibition of human ES4 cell growth in a cell viability assay.

[8] = tested on: ES7; assay type: functional, cell-based, Homo sapiens; details: Homo sapiens, ES7;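 further: growth inhibition of cultured human ES7 cells, read out as cell viability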
Description: SANGER: Inhibition of human ES7 cell growth in a cell viability assay.

[9] = tested on: EW-16; assay type: functional, cell-based, Homo sapiens; details: Homo sapiens, EW-16;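 further: growth inhibition of human EW-16 cells, read out as cell viability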
Description: SANGER: Inhibition of human EW-16 cell growth in a cell viability assay.

[10] = tested on: HCC2218; assay type: functional, cell-based, Homo sapiens; details: Homo sapiens, HCC2218;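 further: cell viability assay read-out, with IC50 given as the concentration that inhibits growth of the cell line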
Description: SANGER: Inhibition of human HCC2218 cell growth in a cell viability assay.

[11] = tested on: HEL; assay type: functional, cell-based, Homo sapiens; details: Homo sapiens, HEL;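 further: growth inhibition of HEL cells, read out with a cell viability assay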
Description: SANGER: Inhibition of human HEL cell growth in a cell viability assay.

[12] = tested on: HH; assay type: functional, cell-based, Homo sapiens; details: Homo sapiens, HH
Description: SANGER: Inhibition of human HH cell growth in a cell viability assay.

[13] = tested on: IST-MES1; assay type: functional, cell-based, Homo sapiens; details: Homo sapiens, IST-MES1;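 further: growth inhibition of IST-MES1 cells, measured with a cell viability assay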
Description: SANGER: Inhibition of human IST-MES1 cell growth in a cell viability assay.

[14] = tested on: JAR; assay type: functional, cell-based, Homo sapiens; details: Homo sapiens, JAR;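 further: growth inhibition of human JAR cells determined with a cell viability assay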
Description: SANGER: Inhibition of human JAR cell growth in a cell viability assay.

[15] = tested on: K562; assay type: functional, cell-based, Homo sapiens; details: Homo sapiens, K562
Description: SANGER: Inhibition of human K-562 cell growth in a cell viability assay.

[16] = tested on: K5; assay type: functional, cell-based, Homo sapiens; details: Homo sapiens, K5
Description: SANGER: Inhibition of human K5 cell growth in a cell viability assay.

[17] = tested on: KE-37; assay type: functional, cell-based, Homo sapiens; details: Homo sapiens, KE-37;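 further: growth inhibition of KE-37 cells, read out with a cell viability assay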
Description: SANGER: Inhibition of human KE-37 cell growth in a cell viability assay.

[18] = tested on: KG-1; assay type: functional, cell-based, Homo sapiens; details: Homo sapiens, KG-1;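 further: growth inhibition of KG-1 cells, read out by a cell viability assay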
Description: SANGER: Inhibition of human KG-1 cell growth in a cell viability assay.

[19] = tested on: KGN; assay type: functional, cell-based, Homo sapiens; details: Homo sapiens, KGN;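 further: growth inhibition of KGN cells, read out with a cell viability assay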
Description: SANGER: Inhibition of human KGN cell growth in a cell viability assay.

[20] = tested on: KM12; assay type: functional, cell-based, Homo sapiens; details: Homo sapiens, KM12;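 further: KM12 cell growth inhibition, read out with a cell viability assay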
Description: SANGER: Inhibition of human KM12 cell growth in a cell viability assay.

[21] = tested on: KY821; assay type: functional, cell-based, Homo sapiens; details: Homo sapiens, KY821;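 further: growth inhibition of human KY821 cells, read out by a cell viability assay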
Description: SANGER: Inhibition of human KY821 cell growth in a cell viability assay.

[22] = tested on: KYSE-270; assay type: functional, cell-based; details: Homo sapiens;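 further: cell growth inhibition measured with a viability assay in the human KYSE-270 line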
Description: SANGER: Inhibition of human KYSE-270 cell growth in a cell viability assay.

[23] = tested on: LAMA-84; assay type: functional, cell-based, Homo sapiens; details: Homo sapiens, LAMA-84;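 further: growth inhibition of LAMA-84 cells, read out with a cell viability assay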
Description: SANGER: Inhibition of human LAMA-84 cell growth in a cell viability assay.

[24] = tested on: LAN-6; assay type: functional, cell-based, Homo sapiens; details: Homo sapiens, LAN-6;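 further: growth inhibition of LAN-6 cells, determined with a cell viability assay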
Description: SANGER: Inhibition of human LAN-6 cell growth in a cell viability assay.

[25] = tested on: LB831-BLC; assay type: functional, cell-based, Homo sapiens; details: Homo sapiens, LB831-BLC;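 further: growth inhibition of LB831-BLC cells, read out with a cell viability assay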
Description: SANGER: Inhibition of human LB831-BLC cell growth in a cell viability assay.

[26] = tested on: LC-2-ad; assay type: functional, cell-based, Homo sapiens; details: Homo sapiens, LC-2-ad;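 further: growth inhibition of human LC-2-ad cells, read out with a cell viability assay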
Description: SANGER: Inhibition of human LC-2-ad cell growth in a cell viability assay.

[27] = tested on: LOX IMVI; assay type: functional, cell-based, Homo sapiens; details: Homo sapiens, LOX IMVI
Description: SANGER: Inhibition of human LOXIMVI cell growth in a cell viability assay.

[28] = tested on: LU-134-A; assay type: functional, cell-based, Homo sapiens; details: Homo sapiens, LU-134-A
Description: SANGER: Inhibition of human LU-134-A cell growth in a cell viability assay.

[29] = tested on: LU-139; assay type: functional, cell-based, Homo sapiens; details: Homo sapiens, LU-139
Description: SANGER: Inhibition of human LU-139 cell growth in a cell viability assay.

[30] = tested on: MEG-01; assay type: functional, cell-based, Homo sapiens; details: Homo sapiens, MEG-01;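 further: growth inhibition of MEG-01 cells, read out by a cell viability assay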
Description: SANGER: Inhibition of human MEG-01 cell growth in a cell viability assay.

[31] = tested on: MSTO-211H; assay type: functional, cell-based, Homo sapiens; details: Homo sapiens, MSTO-211H
Description: SANGER: Inhibition of human MSTO-211H cell growth in a cell viability assay.

[32] = tested on: MZ2-MEL; assay type: functional, cell-based, Homo sapiens; details: Homo sapiens, MZ2-MEL;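 further: growth inhibition of MZ2-MEL cells read out with a cell viability assay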
Description: SANGER: Inhibition of human MZ2-MEL cell growth in a cell viability assay.

[33] = tested on: Mo; assay type: functional, cell-based, Homo sapiens; details: Homo sapiens, Mo
Description: SANGER: Inhibition of human Mo-T cell growth in a cell viability assay.

[34] = tested on: NB69; assay type: functional, cell-based, Homo sapiens; details: Homo sapiens, NB69;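 further: growth inhibition of NB69 cells, determined by a cell viability assay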
Description: SANGER: Inhibition of human NB69 cell growth in a cell viability assay.

[35] = tested on: NCI-H1963; assay type: functional, cell-based, Homo sapiens; details: Homo sapiens, NCI-H1963;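 further: cell growth inhibition of the human line, determined with a cell viability assay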
Description: SANGER: Inhibition of human NCI-H1963 cell growth in a cell viability assay.

[36] = tested on: NOS-1; assay type: functional, cell-based, Homo sapiens; details: Homo sapiens, NOS-1;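 further: growth inhibition of the human NOS-1 cell line, read out with a cell viability assay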
Description: SANGER: Inhibition of human NOS-1 cell growth in a cell viability assay.

[37] = tested on: NTERA-2-cl-D1; assay type: functional, cell-based, Homo sapiens; details: Homo sapiens, NTERA-2-cl-D1;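 further: inhibition of cell growth, measured with a cell viability assay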
Description: SANGER: Inhibition of human NTERA-S-cl-D1 cell growth in a cell viability assay.

[38] = tested on: P30-OHK; assay type: functional, cell-based, Homo sapiens; details: Homo sapiens, P30-OHK;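 further: growth inhibition of the P30-OHK cell line, read out with a cell viability assay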
Description: SANGER: Inhibition of human P30-OHK cell growth in a cell viability assay.

[39] = tested on: RCC10RGB; assay type: functional, cell-based, Homo sapiens; details: Homo sapiens, RCC10RGB;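 further: growth inhibition of human RCC10RGB cells, read out by a cell viability assay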
Description: SANGER: Inhibition of human RCC10RGB cell growth in a cell viability assay.

[40] = tested on: RS4-11; assay type: functional, cell-based, Homo sapiens; details: Homo sapiens, RS4-11;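 further: growth inhibition of RS4-11 cells, read out by a cell viability assay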
Description: SANGER: Inhibition of human RS4-11 cell growth in a cell viability assay.

[41] = tested on: SHP77; assay type: functional, cell-based, Homo sapiens, SHP-77; details: Homo sapiens, SHP77;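 further: growth inhibition of human SHP-77 cells measured by a cell viability assay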
Description: SANGER: Inhibition of human SHP-77 cell growth in a cell viability assay.

[42] = tested on: SK-MEL-2; assay type: functional, cell-based, Homo sapiens; details: Homo sapiens, SK-MEL-2;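 further: growth inhibition of human SK-MEL-2 cells measured with a cell viability assay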
Description: SANGER: Inhibition of human SK-MEL-2 cell growth in a cell viability assay.

[43] = tested on: BB49-HNC; assay type: functional, cell-based, Homo sapiens; details: Homo sapiens, BB49-HNC;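 further: cell viability assay read-out, reported as inhibition of BB49-HNC cell growth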
Description: SANGER: Inhibition of human BB49-HNC cell growth in a cell viability assay.

[44] = tested on: BB65-RCC; assay type: functional, cell-based, Homo sapiens; details: Homo sapiens, BB65-RCC;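 further: growth inhibition of the cell line, measured with a cell viability assay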
Description: SANGER: Inhibition of human BB65-RCC cell growth in a cell viability assay.

[45] = tested on: C8166; assay type: functional, cell-based, Homo sapiens; details: Homo sapiens, C8166;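 further: growth inhibition of human C8166 cells measured by a cell viability assay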
Description: SANGER: Inhibition of human C8166 cell growth in a cell viability assay.

[46] = tested on: TE-10; assay type: functional, cell-based, Homo sapiens; details: Homo sapiens, TE-10;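 further: growth inhibition of TE-10 cells, measured by a cell viability assay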
Description: SANGER: Inhibition of human TE-10 cell growth in a cell viability assay.

[47] = tested on: TE-8; assay type: functional, cell-based, Homo sapiens; details: Homo sapiens, TE-8;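 further: growth inhibition of TE-8 cells, measured with a cell viability readout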
Description: SANGER: Inhibition of human TE-8 cell growth in a cell viability assay.

[48] = tested on: TGBC24TKB; assay type: functional, cell-based; details: Homo sapiens;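 further: growth inhibition of human TGBC24TKB cells, read out with a cell viability assay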
Description: SANGER: Inhibition of human TGBC24TKB cell growth in a cell viability assay.

[49] = tested on: VA-ES-BJ; assay type: functional, cell-based, Homo sapiens; details: Homo sapiens, VA-ES-BJ;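 further: growth inhibition of the VA-ES-BJ cell line, read out by a cell viability assay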
Description: SANGER: Inhibition of human VA-ES-BJ cell growth in a cell viability assay.

[50] = tested on: CGTH-W-1; assay type: functional, cell-based, Homo sapiens; details: Homo sapiens, CGTH-W-1;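 further: growth inhibition of human CGTH-W-1 cells measured by cell viability assay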
Description: SANGER: Inhibition of human CGTH-W-1 cell growth in a cell viability assay.

In the case of `C/C(=C\c1csc(C)n1)[C@@H]1C[C@@H]2O[C@]2(C)CCC[C@H](C)[C@H](O)[C@@H](C)C(=O)C(C)(C)[C@@H](O)CC(=O)O1` [PATUPILONE], the IC50 [1] is reported as greater than 32 nM, the IC50 [2] is reported as 7.11 nM and the IC50 [3] is reported as 4.29 nM. For the same compound, the IC50 [4] was greater than 32 nM, the IC50 [5] was 8.37 nM and the IC50 [6] was 15 nM. It also gave an IC50 [7] of 0.739 nM, an IC50 [8] of 5.87 nM and an IC50 [9] of 1.06 nM. For the same compound, the IC50 [10] was 30.8 nM, the IC50 [11] was 4.14 nM and the IC50 [12] was 9.8 nM. For the same compound, the IC50 [13] was greater than 32 nM, the IC50 [14] was greater than 32 nM and the IC50 [15] was 6.89 nM. For the same compound, the IC50 [16] was 5.59 nM, the IC50 [17] was 1.91 nM and the IC50 [18] was 5.1 nM. For the same compound, the IC50 [19] was 0.617 nM, the IC50 [20] was 2.24 nM and the IC50 [21] was greater than 32 nM. The IC50 [22] was 0.445 nM, the IC50 [23] was 18.9 nM and the IC50 [24] was greater than 32 nM. It also gave an IC50 [25] of 6.03 nM, an IC50 [26] of less than 0.125 nM and an IC50 [27] greater than 32 nM. It also gave an IC50 [28] of 15.8 nM, an IC50 [29] greater than 32 nM and an IC50 [30] of 1.53 nM. It also gave an IC50 [31] greater than 32 nM, an IC50 [32] of 2.15 nM and an IC50 [33] greater than 32 nM. It also gave an IC50 [34] of 8.07 nM, an IC50 [35] of 12 nM and an IC50 [36] of 2.72 nM. It also gave an IC50 [37] of 0.718 nM, an IC50 [38] of 4.49 nM and an IC50 [39] of 19.7 nM. It also gave an IC50 [40] of 2.02 nM, an IC50 [41] of 4.92 nM and an IC50 [42] of 7.19 nM. It also gave an IC50 [43] greater than 32 nM, an IC50 [44] of 0.631 nM and an IC50 [45] of 31.7 nM. It also gave an IC50 [46] of 0.719 nM, an IC50 [47] of 0.111 nM and an IC50 [48] of 2.75 nM. It also gave an IC50 [49] of 4.35 nM and an IC50 [50] of 2.8 nM.

In the case of `COc1ccc(-c2cc3nccn3c(Nc3ncccc3C(N)=O)n2)cc1OC`, the IC50 [1] is reported as greater than 8000 nM, the IC50 [2] is reported as 6640 nM and the IC50 [3] is reported as 3070 nM. It also gave an IC50 [4] greater than 8000 nM, an IC50 [5] of 2030 nM and an IC50 [6] of 3030 nM. For the same compound, the IC50 [7] was 1240 nM, the IC50 [8] was 1090 nM and the IC50 [9] was 1680 nM. For the same compound, the IC50 [10] was greater than 8000 nM, the IC50 [11] was 1350 nM and the IC50 [12] was greater than 8000 nM. The IC50 [13] was greater than 8000 nM, the IC50 [14] was greater than 8000 nM and the IC50 [15] was greater than 8000 nM. For the same compound, the IC50 [16] was 2930 nM, the IC50 [17] was 835 nM and the IC50 [18] was 2870 nM. It also gave an IC50 [19] of 1540 nM, an IC50 [20] of 2690 nM and an IC50 [21] greater than 8000 nM. The IC50 [22] was 1450 nM, the IC50 [23] was greater than 8000 nM and the IC50 [24] was greater than 8000 nM. It also gave an IC50 [25] of 1020 nM, an IC50 [26] of 1820 nM and an IC50 [27] of 2660 nM. It also gave an IC50 [28] of 4320 nM, an IC50 [29] greater than 8000 nM and an IC50 [30] of 5280 nM. It also gave an IC50 [31] greater than 8000 nM, an IC50 [32] of 3480 nM and an IC50 [33] of 4960 nM. The IC50 [34] was greater than 8000 nM, the IC50 [35] was greater than 8000 nM and the IC50 [36] was 481 nM. The IC50 [37] was 1960 nM, the IC50 [38] was 427 nM and the IC50 [39] was greater than 8000 nM. For the same compound, the IC50 [40] was 1230 nM, the IC50 [41] was greater than 8000 nM and the IC50 [42] was 1890 nM. The IC50 [43] was 3300 nM, the IC50 [44] was 5130 nM and the IC50 [45] was 2200 nM. The IC50 [46] was 1760 nM, the IC50 [47] was 2430 nM and the IC50 [48] was greater than 8000 nM. It also gave an IC50 [49] greater than 8000 nM and an IC50 [50] of 3370 nM.

In the case of `O=S(=O)(O)c1ccc2cc(/N=N/c3cc(S(=O)(=O)O)c4cccnc4c3O)ccc2c1`, the IC50 [1] is reported as greater than 16000 nM, the IC50 [2] is reported as greater than 16000 nM and the IC50 [3] is reported as greater than 16000 nM. It also gave an IC50 [4] greater than 16000 nM, an IC50 [5] greater than 16000 nM and an IC50 [6] greater than 16000 nM. It also gave an IC50 [7] greater than 16000 nM, an IC50 [8] greater than 16000 nM and an IC50 [9] greater than 16000 nM. The IC50 [10] was greater than 16000 nM, the IC50 [11] was greater than 16000 nM and the IC50 [12] was greater than 16000 nM. For the same compound, the IC50 [13] was greater than 16000 nM, the IC50 [14] was greater than 16000 nM and the IC50 [15] was greater than 16000 nM. It also gave an IC50 [16] greater than 16000 nM, an IC50 [17] greater than 16000 nM and an IC50 [18] greater than 16000 nM. It also gave an IC50 [19] greater than 16000 nM, an IC50 [20] greater than 16000 nM and an IC50 [21] greater than 16000 nM. For the same compound, the IC50 [22] was greater than 16000 nM, the IC50 [23] was greater than 16000 nM and the IC50 [24] was greater than 16000 nM. The IC50 [25] was greater than 16000 nM, the IC50 [26] was greater than 16000 nM and the IC50 [27] was greater than 16000 nM. For the same compound, the IC50 [28] was greater than 16000 nM, the IC50 [29] was greater than 16000 nM and the IC50 [30] was greater than 16000 nM. It also gave an IC50 [31] greater than 16000 nM, an IC50 [32] greater than 16000 nM and an IC50 [33] greater than 16000 nM. It also gave an IC50 [34] greater than 16000 nM, an IC50 [35] greater than 16000 nM and an IC50 [36] greater than 16000 nM. It also gave an IC50 [37] greater than 16000 nM, an IC50 [38] greater than 16000 nM and an IC50 [39] greater than 16000 nM. It also gave an IC50 [40] greater than 16000 nM, an IC50 [41] greater than 16000 nM and an IC50 [42] greater than 16000 nM. For the same compound, the IC50 [43] was greater than 16000 nM, the IC50 [44] was greater than 16000 nM and the IC50 [45] was greater than 16000 nM. For the same compound, the IC50 [46] was greater than 16000 nM, the IC50 [47] was greater than 16000 nM and the IC50 [48] was greater than 16000 nM. The IC50 [49] was greater than 16000 nM and the IC50 [50] was greater than 16000 nM.
